According to PubChem BioAssay (NCI):
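1) Cells in 96-well plates. 2) Compound, 48 h, 5 concentrations. 3) Linear interpolation between surrounding doses. 4) Unreached endpoint = highest concentration. The concentration for 50% growth inhibition is given as GI50. TGI is the concentration that stops growth completely.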

How the values were obtained:
Experiment in all cases: DTP human tumour cell line panel, 48 h
[1] = test system: 786-0 renal
[2] = test system: HT29 colon
[3] = test system: IGROV1 ovarian
[4] = test system: COLO 205 colon
[5] = test system: NCI-H460 lung
[6] = test system: SNB-19 CNS
[7] = test system: HCT-15 colon
[8] = test system: NCI-H522 lung
[9] = test system: UACC-62 melanoma
[10] = test system: SK-MEL-2 melanoma
[11] = test system: KM12 colon
[12] = test system: LOX IMVI melanoma
[13] = test system: A498 renal
[14] = test system: HOP-92 NSCLC
[15] = test system: OVCAR-8 ovarian
[16] = test system: SF-268 CNS
[17] = test system: PC-3 prostate
[18] = test system: NCI/ADR-RES ovarian
[19] = test system: UACC-257 melanoma
[20] = test system: HOP-62 NSCLC
[21] = test system: MALME-3M melanoma
[22] = test system: SN12C renal
[23] = test system: NCI-H23 lung
[24] = test system: SK-MEL-5 melanoma
[25] = test system: ACHN renal
[26] = test system: TK-10 renal
[27] = test system: RXF 393 renal

## CCCCCCCCCNCCCCCCCCC
[1]
  GI50: 1980 nM
  TGI: 3430 nM
[2]
  GI50: 1270 nM
  TGI: 2880 nM
[3]
  GI50: 1890 nM
  TGI: 3800 nM
[4]
  GI50: 1770 nM
  TGI: 3220 nM
[5]
  GI50: 1930 nM
  TGI: 3650 nM
[6]
  GI50: 2780 nM
  TGI: 9830 nM
[7]
  GI50: 1790 nM
  TGI: 3470 nM
[8]
  GI50: 1540 nM
  TGI: 3080 nM
[9]
  GI50: 1740 nM
  TGI: 3350 nM
[10]
  GI50: 1800 nM
  TGI: 3410 nM
[11]
  GI50: 1830 nM
  TGI: 3290 nM
[12]
  GI50: 1610 nM
  TGI: 3020 nM
[13]
  GI50: 9790 nM
  TGI: 24500 nM
[14]
  GI50: 1470 nM
  TGI: 3030 nM
[15]
  GI50: 2190 nM
  TGI: 4660 nM
[16]
  GI50: 2290 nM
  TGI: 5280 nM
[17]
  GI50: 2030 nM
  TGI: 4700 nM
[18]
  GI50: 1710 nM
  TGI: 3370 nM
[19]
  GI50: 1930 nM
  TGI: 3610 nM
[20]
  GI50: 1930 nM
  TGI: 3380 nM
[21]
  GI50: 1910 nM
  TGI: 3850 nM
[22]
  GI50: 1590 nM
  TGI: 3250 nM
[23]
  GI50: 1720 nM
  TGI: 3390 nM
[24]
  GI50: 1770 nM
  TGI: 3200 nM
[25]
  GI50: 1760 nM
  TGI: 3140 nM
[26]
  GI50: 1750 nM
  TGI: 3230 nM
[27]
  GI50: 1810 nM
